experiment: gradient 5% acetonitrile 3 min, to 50% in 2 min, to 85% in 15 min, held 3 min, 100 µL/min; conditions: column: Zorbax Extend-C18 2.1 x 50 mm; eluents: water / acetonitrile, 0.1% formic acid
How it was run: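 The system's dead and dwell volumes were 40 μL and 900 μL, with a Zorbax Extend-C18 column (2.1 × 50 mm, 1.8 μm) run at 100 μL/min in water and acetonitrile containing 0.1% formic acid each. Pure standards were analyzed in mixtures of ~100 molecules by HPLC–quadrupole time-of-flight mass spectrometry in positive and negative ionization mode. Retention time was assigned from computationally picked, manually inspected adduct peaks.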

| RP-LC retention time [s] | SMILES |
| --- | --- |
| 632 | Cc1ccc(Nc2cc(N3CCC(C(=O)N4CCCC4)CC3)ncn2)cc1 |
| 677 | CCN1C(=O)CCc2cc(NC(=O)c3ccnn3C)ccc21 |
| 718 | C=CCN1C(=O)C(C(=O)N2CCOCC2)C2CC1(C)Oc1ccccc12 (centres undefined) |
| 1020 | Cc1cc(C)cc(NC(=O)Cn2nc(N3CCSCC3)c3ccccc3c2=O)c1 |
| 911 | CCC(=O)N(C1CCOCC1)C1CCN(S(=O)(=O)c2ccc(Cl)cc2C)CC1 |
| 1160 | O=C(c1ccc(F)cc1Cl)N1CCc2nc(-c3ccc(Cl)cc3)ncc2C1 |
| 1260 | Cc1ccc(C)c(-c2csc(Cc3nc(-c4ccc5c(c4)OCO5)no3)n2)c1 |
| 601 | O=C1C(N2CCN(S(=O)(=O)c3cc(F)cc(F)c3)CC2)CCN1Cc1ccccn1 (centres undefined) |
| 976 | O=S(=O)(c1ccccc1F)N1CC(c2nc(Cc3ccccc3)no2)C1 |
| 654 | CCCNC(=O)C1CCN(c2ccc(SCC(=O)Nc3ccc(OC)c(Cl)c3)nn2)CC1 |
| 859 | Cc1ccccc1S(=O)(=O)N1CCCN(c2ccc(=O)n(-c3ccccc3)n2)CC1 |
| 991 | Cc1ccc(C)c(N2C(=O)CN(S(=O)(=O)c3ccccc3)CC2(C)C(=O)NC2CCCC2)c1 (centres undefined) |
| 671 | Nc1cc(C2CCN(C(=O)NCc3ccc(F)cc3)CC2)no1 |
| 743 | CCc1nn2c(=O)cc(CSc3nnc(-c4ccc5c(c4)OCO5)o3)nc2s1 |
| 620 | CCCc1cc(N2CCN(C(=O)c3ccc(F)cc3)CC2)nc2nncn12 |
| 1000 | O=C(NCc1cccc(Br)c1)c1c(O)c2cccnc2[nH]c1=O |
| 848 | COc1ccc(OC)c(CCN2CC(=O)N(c3cccc(C)c3)[C@@H]3CS(=O)(=O)C[C@@H]32)c1 |
| 658 | CCCN1CCN(C(=O)C2CCN(S(=O)(=O)c3ccc4c(c3)sc(=O)n4CCC)CC2)CC1 |
| 884 | CCc1nc(-c2csc(S(=O)(=O)N3CCCC(C(=O)Nc4nccs4)C3)c2)no1 (centres undefined) |
| 1130 | COc1ccc(C2Cn3nnc(-c4nc(-c5ccc(F)cc5)no4)c3CO2)cc1 (centres undefined) |
| 704 | Cc1c(C)n(C)c2ccc(C(N)=O)cc12 |
| 778 | O=C(NCCc1ccccc1)Nc1cnn(-c2ncc(N3CCCC3)cn2)c1 |

| RP-LC retention time [s] | SMILES |
| --- | --- |
| 638 | Cc1ccc(/C=C/S(=O)(=O)NCCn2nc(-c3cccnc3)ccc2=O)cc1 |
| 919 | CCS(=O)(=O)N1CC(=O)N(c2cc(Cl)ccc2C)C(C)(C(=O)NCc2ccccc2)C1 (centres undefined) |
| 775 | CC(C)NC(=O)N1CCC(c2noc(-c3ccccc3)n2)C1 (centres undefined) |
| 757 | CCC(C)NC(=O)C1CCN(S(=O)(=O)c2ccc3c(c2)sc(=O)n3C)CC1 (centres undefined) |
| 902 | O=S(=O)(NCC(O)C1CCCCC1)c1cccc2ccccc12 (centres undefined) |
| 565 | CN(C)C(=O)c1ccc2c(c1)nc(CN1CCN(C(=O)NC3CCCCC3)CC1)n2C |
| 818 | COc1ccc(CNC(=O)c2cn(C)nc2S(=O)(=O)N2CCSCC2)cc1 |
| 700 | O=C(Cc1cn(Cc2ccc(Cl)cc2)c2ccccc12)NCc1ccccn1 |
| 833 | COc1ccccc1Nc1c(-c2ccc(N(C)C)cc2)nc2cnccn12 |
| 709 | Cc1oc(-c2[nH]ncc2C(=O)N2CCCC2)cc1S(=O)(=O)NCc1ccc(F)cc1 |
| 1120 | COc1ccc(NC(=O)C2=Cc3cc(Br)ccc3OC2)c(OC)c1 |
| 779 | COc1cc2nc(C(=O)N3CCCCC3)cc(Nc3ccc(Br)c(C)c3)c2cc1OC |
| 785 | CCN1CCCn2nc(C3CCN(C(=O)c4cccc(C(F)(F)F)c4)CC3)cc2C1=O |
| 762 | Cc1ccc(N2CCC(NC(=O)C3CCC3)C2=O)cc1C (centres undefined) |
| 683 | COc1ccc(NC(=O)c2cn(-c3ccc(C#N)cc3)cn2)cc1OC |
| 621 | CCOC(=O)c1c(C)[nH]c(CCC(=O)NCCN2CCCCCC2)c1C |
| 642 | O=S(=O)(c1cc(-c2nnc(C3CCC3)o2)co1)N1CCC(N2CCCCC2)CC1 |
| 772 | COC(=O)[C@H](Cc1ccc(C#Cc2ccccc2)cc1)NC(=O)C[C@H]1CCCN(C(=N)N)C1 |
| 641 | O=C1C(OC2CCN(Cc3cc(F)ccc3F)CC2)CCN1C1CCCC1 (centres undefined) |
| 608 | CCn1ncc2ccc(C(=O)NC)cc21 |
| 648 | O=C(CCSc1ccccc1)Nc1cccc2ccc(-n3ccnc3)nc12 |
| 593 | N#Cc1cccc(NC(=O)Cc2cn3cc(F)ccc3n2)c1 |

| RP-LC retention time [s] | SMILES |
| --- | --- |
| 890 | CCOC(=O)c1c(NCCC(C)C)c2cc(Cl)ccc2[nH]c1=O |
| 870 | Cc1ccc(-c2nc(-c3ccc4nncn4c3)no2)cc1 |
| 653 | Cc1ncc2c(n1)CCN(C(=O)c1cccc(Cl)c1)C2 |
| 926 | CCCN1C(=O)c2cc(S(=O)(=O)N3CCOCC3)ccc2Oc2cccnc21 |
| 762 | O=C(NCC1(O)CCc2ccccc21)Nc1ccccc1Cl (centres undefined) |
| 909 | CCn1cc(-c2ccc(F)cc2)cc1C(=O)NCC1CCCO1 (centres undefined) |
| 830 | COc1ccccc1-c1noc(C2CCCN2C(=O)c2ccc3cc[nH]c3c2)n1 (centres undefined) |
| 644 | Cc1ccccc1NC(=O)N1CCC(c2cc(N)on2)CC1 |
| 580 | CCc1nc2cc(N3CCC(C(=O)NCCN4CCCCC4)CC3)cnc2nc1CC |
| 785 | CCC(C(=O)NCCc1ccccc1)n1cnc2nc3c(cc2c1=O)CCCC3 (centres undefined) |
| 1070 | O=S(=O)(c1ccc(Cl)c(-c2nnc(-c3ccccc3)o2)c1)N1CCSCC1 |
| 746 | CCCC(=O)Nc1ccc2nc(N3CCN(c4cc(Cl)ccc4C)CC3)cc(C(=O)O)c2c1 |
| 1270 | O=C1NC(=S)S/C1=C\c1cc(Br)ccc1OCc1ccccc1Br |
| 731 | O=C(c1c[nH]c2ccccc12)N1CCN(c2cc(-c3cccs3)[nH]n2)CC1 |
| 640 | Cc1ccc2c(=O)c3c([nH]c2c1C)CCN(CC(=O)Nc1ccccc1Cl)C3 |
| 787 | CCCCOc1ccc(NC(=O)c2cc(=O)c3cc(Cl)ccc3o2)c2cccnc12 |
| 1130 | Cc1[nH]nc(-c2c(C)sc(C)c2S(=O)(=O)NCCc2ccc(Cl)cc2)c1C |
| 876 | Cc1ccc2c(c1)N(Cc1cccc(F)c1)N=C(C(=O)N1CCCC1)S2(=O)=O |
| 1040 | C=CCN1C(=O)COc2ccc(-c3nc(NC(=O)c4ccccc4)sc3C)cc21 |
| 705 | COc1ccccc1NC(=O)Cn1cc(C(=O)N2CCCC2)c(=O)c2ccc(C)nc21 |
| 660 | C[C@]12C=CC(=O)C=C1[C@@H](F)C[C@H]1[C@@H]3CC[C@](O)(C(=O)CO)[C@@]3(C)C[C@H](O)[C@@]12F |
| 595 | CC1(c2nc(C3CC3)no2)CCCN(C(=O)c2ccc3nc[nH]c3c2)C1 (centres undefined) |

| RP-LC retention time [s] | SMILES |
| --- | --- |
| 614 | Cc1nc(-c2ccnc(N3CCOCC3)c2)no1 |
| 826 | Cc1nc(-c2csc(S(=O)(=O)N3CCC(C(=O)NC4CCCC4)CC3)c2)no1 |
| 861 | O=C(NCc1nc(-c2ccc3c(c2)Sc2ccccc2C(=O)N3C2CC2)no1)c1ccco1 |
| 923 | Cc1ccc(S(=O)(=O)N2C[C@@H](F)C[C@H]2C(=O)N2CCc3ccccc3C2)cc1 |
| 780 | CC(NC(=O)Cc1nnc2cc(-c3nc(C4CC4)no3)ccn12)c1ccc(F)cc1 (centres undefined) |
| 736 | CCC(C)C(NC(=O)Cc1ccccc1F)C(=O)Nc1nc2ccccc2[nH]1 (centres undefined) |
| 749 | O=C(c1ccco1)N1CCC(Cc2nnc(-c3ccccc3)o2)CC1 |
| 1010 | CCc1ccc(N2CC(c3noc(-c4cccs4)n3)CC2=O)cc1 (centres undefined) |
| 746 | Cc1nc2ccn(Cc3ccco3)c(=O)c2cc1C(=O)N1CCC(C)CC1 |
| 623 | O=S(=O)(Nc1ccc(N2CCOCC2)cc1)C1CC1 |
| 821 | C[C@H]1CN(C(=O)Nc2ccc(Cl)cc2)C[C@@H]1c1nc(-c2ccncc2)no1 |
| 1070 | Cc1nc(-c2ccccc2)nc2c1CC(=O)N2Cc1cccs1 |
| 1010 | CCCn1c(=O)sc2cc(S(=O)(=O)N3CCC(C(=O)Nc4cccc(C)c4)CC3)ccc21 |
| 598 | O=C(c1cn(-c2ccc(S(=O)(=O)N3CCOCC3)cc2)cn1)N1CCN(c2ccccn2)CC1 |
| 946 | O=C(NCc1cccc(F)c1)c1cc(N2CCCC2)n2nccc2n1 |
| 897 | O=C(CN1C(=O)CCCc2cc(S(=O)(=O)N3CCCC3)ccc21)Nc1ccc(Cl)cc1F |
| 1080 | COC(=O)c1ccc(NC(=O)c2sc(-c3cn(C)c4ncccc34)nc2C)cc1 |
| 613 | COc1ccccc1OCC(=O)N1CCN(c2nc(CN3CCOCC3)cs2)CC1 |
| 612 | COC(=O)CNC(=O)N1CCCN(c2nc3cc(F)ccc3n3cccc23)CC1 |
| 823 | CCc1ccc(NC(=O)Cn2nc3c(N(C)C4CCCCC4)nccn3c2=O)cc1 |
| 1310 | Cc1ccccc1-c1nc(-c2ccc(-n3cccn3)nc2)no1 |
| 613 | Cc1ccsc1C(=O)NCC(=O)Nc1nc2ccccc2[nH]1 |

| SMILES | RP-LC retention time [s] |
| --- | --- |
| Cn1cc(C(=O)C(=O)N[C@H]2CN3CCC2CC3)c2ccccc21 | 672 |

Reference: the METLIN SMRT retention time set (Domingo-Almenara et al. 2019)
